Test results published in paper PMC3401626 (Chemmedchem, 2011).

Experiments:
AAC(6′)/APH(2″)-Ia = AAC(6′)/APH(2″)-Ia (Staphylococcus aureus, UniProt P0A0C1); test: Inhibitors' selectivity: AAC; format: biochemical; conditions: inhibitor 200 to 0.2 μM; enzyme 0.25 μM
Eis [1] = target: T1, Eis (Mycobacterium tuberculosis, UniProt P9WFK7); test: Eis inhibition, UV-Vis DTNB assay of aminoglycoside acetylation; format: biochemical; conditions: at least 3 trials
[2] = cited from earlier work
Eis [3] = target: T1, Eis; test: Mode of inhibition of Eis; format: biochemical; conditions: for Mode of inhibition against NEO: varying NEO 50-200 μM
AAC(2′)-Ic = AAC(2′)-Ic (Mycobacterium tuberculosis, UniProt P9WQG9); test: Inhibitors' selectivity: AAC; format: biochemical, Mtb; conditions: inhibitor 200 to 0.2 μM
AAC(3)-IV = target: T2, AAC(3)-IV (Salmonella sp, UniProt P08988); test: Inhibitors' selectivity: AAC; format: biochemical, Escherichia coli; conditions: inhibitor 200 to 0.2 μM; enzyme 0.25 μM
T2 sequence (P08988 with tags, fused parts or gaps limits assumed): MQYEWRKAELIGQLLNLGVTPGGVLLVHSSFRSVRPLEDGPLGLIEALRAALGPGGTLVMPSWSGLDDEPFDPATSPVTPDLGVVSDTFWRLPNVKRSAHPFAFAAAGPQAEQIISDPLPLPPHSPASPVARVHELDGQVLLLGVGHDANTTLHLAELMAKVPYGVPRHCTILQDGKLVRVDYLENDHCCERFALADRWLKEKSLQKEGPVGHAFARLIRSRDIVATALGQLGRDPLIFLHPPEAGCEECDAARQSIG

T1 sequence (P9WFK7 whole entry): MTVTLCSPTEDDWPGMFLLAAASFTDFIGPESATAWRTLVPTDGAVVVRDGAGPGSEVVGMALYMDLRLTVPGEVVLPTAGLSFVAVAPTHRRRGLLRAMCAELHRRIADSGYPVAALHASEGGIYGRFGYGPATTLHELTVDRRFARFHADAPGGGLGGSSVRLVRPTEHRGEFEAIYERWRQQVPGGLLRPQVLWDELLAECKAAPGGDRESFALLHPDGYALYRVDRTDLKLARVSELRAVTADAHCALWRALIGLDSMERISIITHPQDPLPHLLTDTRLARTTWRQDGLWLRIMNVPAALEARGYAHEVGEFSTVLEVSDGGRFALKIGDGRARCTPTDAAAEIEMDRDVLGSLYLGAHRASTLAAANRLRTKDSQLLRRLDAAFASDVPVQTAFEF
AAC(2′)-Ic, sequence (P9WQG9 whole entry): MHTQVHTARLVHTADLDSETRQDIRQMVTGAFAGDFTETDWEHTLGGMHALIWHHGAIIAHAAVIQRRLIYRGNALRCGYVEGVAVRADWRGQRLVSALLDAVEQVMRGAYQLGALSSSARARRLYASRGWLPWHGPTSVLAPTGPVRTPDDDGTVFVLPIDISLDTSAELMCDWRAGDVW
AAC(6′)/APH(2″)-Ia, sequence (P0A0C1 whole entry): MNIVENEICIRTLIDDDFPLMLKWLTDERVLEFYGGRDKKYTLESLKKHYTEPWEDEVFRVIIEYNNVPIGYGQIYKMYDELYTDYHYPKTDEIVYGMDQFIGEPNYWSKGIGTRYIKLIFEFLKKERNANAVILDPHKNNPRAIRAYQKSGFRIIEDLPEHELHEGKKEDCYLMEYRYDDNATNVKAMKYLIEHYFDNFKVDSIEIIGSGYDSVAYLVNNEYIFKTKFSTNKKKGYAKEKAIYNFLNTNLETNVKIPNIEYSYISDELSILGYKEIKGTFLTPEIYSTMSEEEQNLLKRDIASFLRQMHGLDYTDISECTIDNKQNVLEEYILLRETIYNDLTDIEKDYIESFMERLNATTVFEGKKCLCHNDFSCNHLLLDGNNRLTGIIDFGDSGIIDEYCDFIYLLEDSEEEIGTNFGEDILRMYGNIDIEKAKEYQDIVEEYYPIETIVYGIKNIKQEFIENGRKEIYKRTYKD

[H]/N=C(\N/C(=N/[H])NCCCCCCNC(=N)NC(=N)Nc1ccc(Cl)cc1)Nc1ccc(Cl)cc1 [Compound 6, chlorhexidine]
inhibition of AAC(6′)/APH(2″) (AAC(6′)/APH(2″)-Ia): no significant inhibition
IC50 (Eis [1]; Eis inhibition constants (IC50) using AMK, substrate AMK): 321 ± 58 nM
IC50 (Eis [1]; Eis inhibition constants (IC50) using KAN, substrate KAN): 666 ± 193 nM
toxic effects on pulmonary tissues [2]: toxic effects on pulmonary tissues
Mode of inhibition against AMK (Eis [3]; substrate AMK, listed as chlorhexidine (6)): AG-competitive inhibitor
Mode of inhibition against KAN (Eis [3]; substrate KAN, listed as chlorhexidine (6)): AG-competitive inhibitor
Mode of inhibition against NEO (Eis [3]): competitive inhibitor
Mode of inhibition against NEO (Eis [3]; listed as chlorhexidine (6)): AG-competitive inhibitor
inhibition of AAC(2′)-Ic (AAC(2′)-Ic): no significant inhibition
inhibition of AAC(3)-IV (AAC(3)-IV): no significant inhibition
